Experimental data reported in article PMC5584254, “Identification of novel small molecule Beclin 1 mimetics activating autophagy” (Oncotarget, 2017).
Counter-ions that a name gives are not always drawn. Like-named read-outs stand apart in the source and are kept apart here.

How the values were obtained:
Bcl-xL-Beclin 1 complex [1] = target: T1, Bcl-xL-Beclin 1 complex (Homo sapiens, UniProt Q07817); assay: FP-based high-throughput screening, primary screen; type: binding; settings: first screen; 40 μM compound, 2.5 μM Bcl-xL, 400 nM 20-mer
T1 construct: made in house
T1 sequence (Q07817 whole entry, one chain of several): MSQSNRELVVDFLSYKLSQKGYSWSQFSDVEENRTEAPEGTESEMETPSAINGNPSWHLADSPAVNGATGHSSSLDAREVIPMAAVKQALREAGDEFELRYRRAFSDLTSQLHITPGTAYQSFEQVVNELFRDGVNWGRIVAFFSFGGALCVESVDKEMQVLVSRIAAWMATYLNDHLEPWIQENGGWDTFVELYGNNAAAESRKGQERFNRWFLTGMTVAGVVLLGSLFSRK
From the text: Next, we optimized the FP competitive binding assay in a 384-well microplate format and carried out a small-scale HTS using a small library, which contains 6580 compounds from Prestwick, Microsource and our in-house CMLD library. Then, the FP assay was optimized and applied in screening the larger Chembridge library consisting of 43736 compounds. HTS cascades are shown in Supplementary Figure 1A–1B. […] All chemical structures can be found on the PubChem website (http://pubchem.ncbi.nlm.nih.gov/).
(§1) Then the plates were read by Envision (Perkin Elmer, Waltham, MA). […] The hits were selected from library stocks and reconfirmed in a concentration response FP assay (6 doses ranging from 5 μM to 160 μM or 8 doses ranging from 0.5 μM to 60 μM).

Bcl-xL-Beclin 1 complex [2] = target: T1, Bcl-xL-Beclin 1 complex; assay: Concentration response FP reconfirmation of HTS hits; type: binding; settings: for inhibition at 5 µM: read-out: Dose-response (% Inhibition) 5 μM; for inhibition at 10 µM: read-out: Dose-response (% Inhibition) 10 μM; for inhibition at 20 µM: read-out: Dose-response (% Inhibition) 20 μM; for inhibition at 40 µM: read-out: Dose-response (% Inhibition) 40 μM; for inhibition at 80 µM: read-out: Dose-response (% Inhibition) 80 μM; for inhibition at 160 µM: read-out: Dose-response (% Inhibition) 160 μM
Protocol: as §1

Row | Structure (SMILES) | Primary Screen mP (Bcl-xL-Beclin 1 complex [1]) [mP] | inhibition at 40 µM (Bcl-xL-Beclin 1 complex [1]) [%] | inhibition at 5 µM (Bcl-xL-Beclin 1 complex [2]; 5 μM, hits of first screen) [%] | inhibition at 10 µM (Bcl-xL-Beclin 1 complex [2]; 10 μM, hits of first screen) [%] | inhibition at 20 µM (Bcl-xL-Beclin 1 complex [2]; 20 μM, hits of first screen) [%] | inhibition at 40 µM (Bcl-xL-Beclin 1 complex [2]; 40 μM, hits of first screen) [%] | inhibition at 80 µM (Bcl-xL-Beclin 1 complex [2]; 80 μM, hits of first screen) [%] | inhibition at 160 µM (Bcl-xL-Beclin 1 complex [2]; 160 μM, hits of first screen) [%] | also measured
1 | O=C1c2cccc(O)c2C(=O)c2c(O)cccc21 [Compound A03, DANTHRON] | 126.4 | 9.62 | -1.2 | 1.4 | 4.8 | 4.9 | 8.7 | 19.7 | –
2 | CC1=NCCc2c1[nH]c1cc(O)ccc21 [Compound A28, HARMALOL HYDROCHLORIDE] | 56.2 | 60 | 19.2 | 31.2 | 41.6 | 56.8 | 73 | 86.2 | –
3 | CCCCCCCCCc1ccc(OCCOCCOCCOCCOCCOCCOCCOCCOCCO)cc1 [Compound A17, NONOXYNOL-9] | 127.2 | 9.04 | – | – | – | – | – | – | inhibition at 5 µM (Bcl-xL-Beclin 1 complex [2]): -0.3%; inhibition at 10 µM (Bcl-xL-Beclin 1 complex [2]): 6.2%; inhibition at 20 µM (Bcl-xL-Beclin 1 complex [2]): 5.9%; inhibition at 40 µM (Bcl-xL-Beclin 1 complex [2]): 5.3%; inhibition at 80 µM (Bcl-xL-Beclin 1 complex [2]): 12.9%; inhibition at 160 µM (Bcl-xL-Beclin 1 complex [2]): 11.1%
4 | CCCCCCCCCCCCCCCCC(C(=O)O)C(O)(CC(=O)O)C(=O)O (stereo not shown) [Compound A19, AGARIC ACID] | 118.2 | – | – | – | – | – | – | – | Primary Screen % Inhibition (Bcl-xL-Beclin 1 complex [1]): 15.85%; Dose-response (% Inhibition) 5 μM (Bcl-xL-Beclin 1 complex [2]; 5 μM, hits of first screen): 3.8%; Dose-response (% Inhibition) 10 μM (Bcl-xL-Beclin 1 complex [2]; 10 μM, hits of first screen): 6.3%; Dose-response (% Inhibition) 20 μM (Bcl-xL-Beclin 1 complex [2]; 20 μM, hits of first screen): 9.1%; Dose-response (% Inhibition) 40 μM (Bcl-xL-Beclin 1 complex [2]; 40 μM, hits of first screen): 12.7%; Dose-response (% Inhibition) 80 μM (Bcl-xL-Beclin 1 complex [2]; 80 μM, hits of first screen): 20.3%; Dose-response (% Inhibition) 160 μM (Bcl-xL-Beclin 1 complex [2]; 160 μM, hits of first screen): 20.9%
5 | CN1C[C@H](C(=O)N[C@]2(C)O[C@@]3(O)[C@@H]4CCCN4C(=O)[C@H](Cc4ccccc4)N3C2=O)C=C2c3cccc4[nH]cc(c34)C[C@H]21 [Compound A18, ERGOTAMINE TARTRATE] | 122.3 | 11 | – | – | – | – | – | – | inhibition at 5 µM (Bcl-xL-Beclin 1 complex [2]): -0.2%; inhibition at 10 µM (Bcl-xL-Beclin 1 complex [2]): 0.3%; inhibition at 20 µM (Bcl-xL-Beclin 1 complex [2]): 3.3%; inhibition at 40 µM (Bcl-xL-Beclin 1 complex [2]): 5.8%; inhibition at 80 µM (Bcl-xL-Beclin 1 complex [2]): 15.6%; inhibition at 160 µM (Bcl-xL-Beclin 1 complex [2]): 25.6%
6 | CCc1oc2ccccc2c1C(=O)c1cc(Br)c(O)c(Br)c1 [Compound A20, BENZBROMARONE] | 125.0 | 9.05 | 0.2 | 0.6 | 1 | 1.1 | 6.1 | 11.3 | –
7 | CCN(CC)CCNC(=O)COc1ccc(OC)cc1.Cl [Compound A32, MEFEXAMIDE HYDROCHLORIDE] | 119.7 | – | – | – | – | – | – | – | Primary Screen % Inhibition (Bcl-xL-Beclin 1 complex [1]): 14.40%; Dose-response (% Inhibition) 5 μM (Bcl-xL-Beclin 1 complex [2]; 5 μM, hits of first screen): -1.5%; Dose-response (% Inhibition) 10 μM (Bcl-xL-Beclin 1 complex [2]; 10 μM, hits of first screen): 2.6%; Dose-response (% Inhibition) 20 μM (Bcl-xL-Beclin 1 complex [2]; 20 μM, hits of first screen): 4.3%; Dose-response (% Inhibition) 40 μM (Bcl-xL-Beclin 1 complex [2]; 40 μM, hits of first screen): 11.2%; Dose-response (% Inhibition) 80 μM (Bcl-xL-Beclin 1 complex [2]; 80 μM, hits of first screen): 23.1%; Dose-response (% Inhibition) 160 μM (Bcl-xL-Beclin 1 complex [2]; 160 μM, hits of first screen): 32.1%
8 | O=C1C=C2CC3(O)COc4cc(O)ccc4C3=C2C=C1O (stereo not shown) [Compound A01, BRAZILEIN] | 96.0 | 31 | 8 | 16.9 | 23 | 35.7 | 57.8 | 74.8 | –
9 | COc1cccc2c1C(=O)c1c(O)c3c(c(O)c1C2=O)C[C@@](O)(C(=O)CO)C[C@@H]3O[C@H]1C[C@H](N)[C@@H](O)[C@H](C)O1 [Compound A24, EPIRUBICIN HYDROCHLORIDE] | 136.0 | 22.8 | 6.8 | 11.3 | 16.2 | 23.1 | 34.4 | 40.9 | –
10 | CC(C)=CCCC1(C)C=Cc2c(O)c3c(c(CC=C(C)C)c2O1)OC12C(=CCCC1C(C)(C)O[C@@]2(C/C=C(\C)C(=O)O)C(=O)O)C3=O (stereo partly shown) [Compound A02, GARCINOLIC ACID] | 124.0 | 11.8 | 2.5 | 3.3 | 3.6 | 7.5 | 18.1 | 22 | –
11 | O=C1c2c(O)ccc(O)c2C(=O)c2c(NCCNCCO)ccc(NCCNCCO)c21 [Compound A11, MITOXANTRONE HYDROCHLORIDE] | 99.8 | 26.3 | -2.2 | 4.3 | 11.2 | 19.5 | 32.9 | 32.2 | –
